Measurements from patent US10899737B2, “Piperazine carbamates and methods of making and using same” (Lundbeck La Jolla Research Center, Inc., priority 2016, dated 2021).

Tests used:
Format in all cases: biochemical
MAGL [1] = target: T1, MAGL (Homo sapiens, UniProt Q99685); test: In vitro competitive activity-based protein profiling (human), MAGL; details: for inhibition at 1 µM: 1 μM inhibitor, human proteome, 30 min preincubation at 37° C, read-out: MAGL % inh. 1 μM (human); for IC50: human PC3
T1 construct: Proteomes (human prefrontal cortex or cell membrane fractions); from tissue
T1 sequence (Q99685 1-303): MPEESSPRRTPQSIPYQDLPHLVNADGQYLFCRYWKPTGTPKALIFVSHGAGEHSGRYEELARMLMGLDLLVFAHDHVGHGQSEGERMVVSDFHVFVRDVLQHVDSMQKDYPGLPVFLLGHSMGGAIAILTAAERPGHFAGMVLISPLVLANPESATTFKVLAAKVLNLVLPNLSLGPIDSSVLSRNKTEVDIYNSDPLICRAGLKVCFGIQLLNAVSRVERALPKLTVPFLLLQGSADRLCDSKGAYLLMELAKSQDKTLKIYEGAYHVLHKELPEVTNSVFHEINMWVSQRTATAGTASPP
Protocol: (§1) In Vitro Competitive Activity-Based Protein Profiling (Human).
(§2) Proteomes (human prefrontal cortex or cell membrane fractions) (50 μL, 1.0-2.0 mg/mL total protein concentration) were preincubated with varying concentrations of inhibitors at 37° C. After 30 min, FP-Rh or JW912 (1.0 μL, 50 μM in DMSO) was added and the mixture was incubated for another 30 min at room temperature. Reactions were quenched with SDS loading buffer (15 μL-4×) and run on SDS-PAGE. Following gel imaging, serine hydrolase activity was determined by measuring fluorescent intensity of gel bands corresponding to MAGL and ABHD6 using ImageJ 1.49 k software.

ABHD6 [2] = target: T2, ABHD6 (Homo sapiens, UniProt Q9BV23); test: In vitro competitive activity-based protein profiling (human), ABHD6; details: human PC3
T2 construct: Proteomes (human prefrontal cortex or cell membrane fractions); endogenous in cells; human prefrontal cortex
T2 sequence (Q9BV23 1-337): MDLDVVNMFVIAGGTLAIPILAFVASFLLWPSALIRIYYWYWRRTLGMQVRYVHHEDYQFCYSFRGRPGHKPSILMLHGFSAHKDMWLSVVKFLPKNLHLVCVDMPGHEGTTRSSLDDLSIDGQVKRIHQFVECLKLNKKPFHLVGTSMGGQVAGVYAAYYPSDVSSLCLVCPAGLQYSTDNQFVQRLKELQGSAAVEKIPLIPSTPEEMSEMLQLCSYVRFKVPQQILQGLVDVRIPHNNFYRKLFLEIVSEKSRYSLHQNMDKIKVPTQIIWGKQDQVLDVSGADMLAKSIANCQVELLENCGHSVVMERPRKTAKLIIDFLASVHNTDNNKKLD
Protocol: as §1, §2

MAGL [3] = target: T3, MAGL (Mus musculus, UniProt O35678); test: In vitro competitive activity-based protein profiling (mouse), MAGL; details: 1 μM inhibitor, mouse brain membrane fraction or cell lysates; read-out: MAGL % inh. 1 μM (mouse)
T3 construct: Proteomes (mouse brain membrane fraction or cell lysates); from tissue; host or cells: mouse brain membrane fraction or cell lysates
T3 sequence (O35678 1-303): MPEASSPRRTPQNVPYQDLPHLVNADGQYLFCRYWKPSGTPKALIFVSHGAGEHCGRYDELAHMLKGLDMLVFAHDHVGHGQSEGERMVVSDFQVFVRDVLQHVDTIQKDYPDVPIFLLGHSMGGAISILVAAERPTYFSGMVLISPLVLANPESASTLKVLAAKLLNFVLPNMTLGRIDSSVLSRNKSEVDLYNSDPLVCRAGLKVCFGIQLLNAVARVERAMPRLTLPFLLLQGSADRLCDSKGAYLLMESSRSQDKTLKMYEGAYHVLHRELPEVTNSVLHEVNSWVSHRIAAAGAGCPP
Protocol: (§3) In Vitro Competitive Activity-Based Protein Profiling (Mouse).
(§4) Proteomes (mouse brain membrane fraction or cell lysates) (50 μL, 1.0 mg/mL total protein concentration) were preincubated with varying concentrations of inhibitors at 37° C. After 30 min, FP-Rh (1.0 μL, 50 μM in DMSO) was added and the mixture was incubated for another 30 min at 37° C. Reactions were quenched with SDS loading buffer (50 μL-4×) and run on SDS-PAGE. Following gel imaging, serine hydrolase activity was determined by measuring fluorescent intensity of gel bands corresponding to MAGL and ABHD6 using ImageJ 1.49 k software. Data from this assay is shown in Table 1 (% inhibition at 1 μM).

ABHD6 [4] = target: T4, ABHD6 (Mus musculus, UniProt Q8R2Y0); test: In vitro competitive activity-based protein profiling (mouse), ABHD6; details: 1 μM inhibitor, mouse brain membrane fraction or cell lysates; read-out: ABHD6 % inh. 1 μM (mouse)
T4 construct: Proteomes (mouse brain membrane fraction or cell lysates); from tissue; host or cells: mouse brain membrane fraction or cell lysates
T4 sequence (Q8R2Y0 1-336): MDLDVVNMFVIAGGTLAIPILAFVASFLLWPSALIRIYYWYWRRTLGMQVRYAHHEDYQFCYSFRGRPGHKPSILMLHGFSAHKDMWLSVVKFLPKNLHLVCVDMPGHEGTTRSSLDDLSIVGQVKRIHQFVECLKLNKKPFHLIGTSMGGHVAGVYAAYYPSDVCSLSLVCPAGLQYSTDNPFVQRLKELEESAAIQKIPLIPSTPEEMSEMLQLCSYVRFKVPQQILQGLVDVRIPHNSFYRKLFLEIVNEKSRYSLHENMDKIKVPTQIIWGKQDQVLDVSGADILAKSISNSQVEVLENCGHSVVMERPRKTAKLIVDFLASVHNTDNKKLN
Protocol: as §3, §4

| inhibition at 1 µM (MAGL [1]) [%] | IC50 (MAGL [1]) [µM] | IC50 (ABHD6 [2]) [µM] | inhibition at 1 µM (MAGL [3]) [%] | inhibition at 1 µM (ABHD6 [4]) [%] | Compound |
| --- | --- | --- | --- | --- | --- |
| ≥ 75 | – | – | ≥ 75 | ≥ 75 | O=C(O)C1CCN(c2cc(Cl)c(F)cc2CN2CCN(C(=O)OC(C(F)(F)F)C(F)(F)F)CC2)CC1 [Example 60, 1-(5-chloro-4-fluoro-2-((4-(((1,1,1,3,3,3-hexafluoropropan-2-yl)oxy)carbonyl)piperazin1-yl)methyl)phenyl)piperidine-4-carboxylic acid] |
| ≥ 75 | – | – | ≥ 75 | 50 to 75 | C#Cc1ccc(CN2CCN(C(=O)OC(C(F)(F)F)C(F)(F)F)CC2)c(N2CCC(C(=O)O)CC2)c1 [Example 82, 1-(5-ethynyl-2-((4-(((1,1,1,3,3,3-hexafluoropropan-2-yl)oxy)carbonyl)piperazin-1-yl)methyl)phenyl)piperidine-4-carboxylic acid] |
| ≥ 75 | – | – | ≥ 75 | 50 to 75 | O=C(O)C1CCN(c2c(Cl)cccc2CN2CCN(C(=O)OC(C(F)(F)F)C(F)(F)F)CC2)CC1 [Example 75, 1-(2-chloro-6-((4-(((1,1,1,3,3,3-hexafluoropropan-2-yl)oxy)carbonyl)piperazin-1-yl)methyl)phenyl)piperidine-4-carboxylic acid] |
| – | – | – | ≥ 75 | ≥ 75 | O=C(O)C1CCN(c2ccc(CN3CCN(C(=O)OC(C(F)(F)F)C(F)(F)F)CC3)cc2)CC1 [Example 77, 1-(4-((4-(((1,1,1,3,3,3-hexafluoropropan-2-yl)oxy)carbonyl)piperazin-1-yl)methyl)phenyl)piperidine-4-carboxylic acid] |
| ≥ 75 | – | – | ≥ 75 | ≥ 75 | O=C(O)C1CCN(c2c(CN3CCN(C(=O)OC(C(F)(F)F)C(F)(F)F)CC3)cccc2C(F)(F)F)CC1 [Example 74, 1-(2-((4-(((1,1,1,3,3,3-hexafluoropropan-2-yl)oxy)carbonyl)piperazin-1-yl)methyl)-6-(trifluoromethyl)phenyl)piperidine-4-carboxylic acid] |
| – | ≤ 0.1 | 1 to 10 | – | – | Cc1cc(N2CCC(C(=O)O)CC2)c(CN2CCN(C(=O)OC(C(F)(F)F)C(F)(F)F)CC2)cc1F [Example 76, 1-(4-fluoro-2-((4-(((1,1,1,3,3,3-hexafluoropropan-2-yl)oxy)carbonyl)piperazin-1-yl)methyl)-5-methylphenyl)piperidine-4-carboxylic acid] |

The next lines start with the molecule.

| Compound | inhibition at 1 µM (MAGL [1]) [%] | IC50 (MAGL [1]) [µM] | IC50 (ABHD6 [2]) [µM] | inhibition at 1 µM (MAGL [3]) [%] | inhibition at 1 µM (ABHD6 [4]) [%] |
| --- | --- | --- | --- | --- | --- |
| O=C(O)CNCC1CCN(c2cc(C(F)(F)F)ccc2CN2CCN(C(=O)OC(C(F)(F)F)C(F)(F)F)CC2)CC1 [Example 61, ((1-(2-((4-(((1,1,1,3,3,3-hexafluoropropan-2-yl)oxy)carbonyl)piperazin-1-yl)methyl)-5-(trifluoromethyl)phenyl)piperidin-4-yl)methyl)glycine] | ≥ 75 | ≤ 0.1 | 1 to 10 | ≥ 75 | 0 to 25 |
| O=C(O)[C@@H]1CCCN(c2cc(CN3CCN(C(=O)OC(C(F)(F)F)C(F)(F)F)CC3)cc(C(F)(F)F)c2)C1 [Example 66, (R)-1-(3-((4-(((1,1,1,3,3,3-hexafluoropropan-2-yl)oxy)carbonyl)piperazin-1-yl)methyl)-5-(trifluoromethyl)phenyl)piperidine-3-carboxylic acid] | ≥ 75 | ≤ 0.1 | ≤ 0.1 | ≥ 75 | ≥ 75 |
| CC(C)(C(=O)O)N1CC2CN(c3cc(C(F)(F)F)ccc3CN3CCN(C(=O)OC(C(F)(F)F)C(F)(F)F)CC3)CC2C1 (stereo not drawn) [Example 16, 2-(5-(2-((4-(((1,1,1,3,3,3-Hexafluoropropan-2-yl)oxy)carbonyl)piperazin-1-yl)methyl)-5-(trifluoromethyl)phenyl)hexahydropyrrolo[3,4-c]pyrrol-2(1H)-yl)-2-methylpropanoic Acid] | ≥ 75 | ≤ 0.1 | 1 to 10 | ≥ 75 | 0 to 25 |
| N#Cc1ccc(CN2CCN(C(=O)OC(C(F)(F)F)C(F)(F)F)CC2)c(C2(C(=O)O)CCCC2)c1 [Example 30, 1-(5-Cyano-2-((4-(((1,1,1,3,3,3-hexafluoropropan-2-yl)oxy)carbonyl)piperazin-1-yl)methyl)phenyl)cyclopentane-1-carboxylic Acid] | – | – | – | ≥ 75 | 0 to 25 |
| N#Cc1ccc(CN2CCN(C(=O)OC(C(F)(F)F)C(F)(F)F)CC2)c(-c2ccn(CC(=O)O)n2)c1 [Example 50, 2-(3-(5-cyano-2-((4-(((1,1,1,3,3,3-hexafluoropropan-2-yl)oxy)carbonyl)piperazin-1-yl)methyl)phenyl)-1H-pyrazol-1-yl)acetic acid] | ≥ 75 | – | – | ≥ 75 | ≥ 75 |
| CN1CCN(c2cc(C(F)(F)F)ccc2CN2CCN(C(=O)OC(C(F)(F)F)C(F)(F)F)CC2)CC1C(=O)O (stereo not drawn) [Example 58, 4-(2-((4-(((1,1,1,3,3,3-hexafluoropropan-2-yl)oxy)carbonyl)piperazin-1-yl)methyl)-5-(trifluoromethyl)phenyl)-1-methylpiperazine-2-carboxylic acid] | ≥ 75 | – | – | ≥ 75 | 0 to 25 |
| O=C(O)C1CCCCN1c1cc(C(F)(F)F)ccc1CN1CCN(C(=O)OC(C(F)(F)F)C(F)(F)F)CC1 (stereo not drawn) [Example 65, 1-(2-((4-(((1,1,1,3,3,3-hexafluoropropan-2-yl)oxy)carbonyl)piperazin-1-yl)methyl)-5-(trifluoromethyl)phenyl)piperidine-2-carboxylic acid] | 50 to 75 | – | – | ≥ 75 | 0 to 25 |
| O=C(O)CN1CCC(C2CCN(c3cc(Cl)ccc3CN3CCN(C(=O)OC(C(F)(F)F)C(F)(F)F)CC3)CC2)C1 (stereo not drawn) [Example 33, 2-(3-(1-(5-Chloro-2-((4-(((1,1,1,3,3,3-hexafluoropropan-2-yl)oxy)carbonyl)piperazin-1-yl)methyl)phenyl)piperidin-4-yl)pyrrolidin-1-yl)acetic Acid] | ≥ 75 | – | – | ≥ 75 | 50 to 75 |
| O=C(O)C1CN(c2cc(C(F)(F)F)ccc2CN2CCN(C(=O)OC(C(F)(F)F)C(F)(F)F)CC2)C1 [Example 79, 1-(2-((4-(((1,1,1,3,3,3-hexafluoropropan-2-yl)oxy)carbonyl)piperazin-1-yl)methyl)-5-(trifluoromethyl)phenyl)azetidine-3-carboxylic acid] | ≥ 75 | – | – | ≥ 75 | ≥ 75 |
